Assay results published in patent US10188634B2, “3-(3H-imidazo[4,5-C]pyridin-2-yl)-1 H-pyrazolo[4,3-B]pyridines and therapeutic uses thereof” (Samumed, LLC, priority 2015, dated 2019).

Experiments:
Format in all cases: cell-based
IL-6 in THP-1 cells = assay: Inhibition of IL-6 in LPS-stimulated THP-1 human monocyte cells (HTRF); details: IL-6 HTRF; for EC50: 500 ng/mL LPS, 22 hours; for inhibition at 10 µM: LPS, read-out: percent inhibition in brackets (given for EC50 >10 μM)
Protocol: Human Monocyte Cell Culture: Human monocyte cell line (THP-1 cells; Catalog # TIB-202, ATCC, Manassas, Va.) were cultured in Roswell Park Memorial Institute (RPMI) 1640 Medium (Catalog #21870-100, Buffalo, N.Y.) with 1% L-glutamine, 1% HEPES, 1% Sodium Pyruvate, 2% Sodium Bicarbonate supplemented with 100 units/mL penicillin, 50 μg/mL streptomycin, 2-mercaptoethanol (0.05 mM) [basal medium] and 10% fetal bovine serum (Catalog #16140089, Life Technologies, Carlsbad, Calif.) at 37° C. and 5% CO2.
Compound Screening: THP-1 cells were cultured in basal media with 1% FBS for 24 hours before the start of the assay. Each compound was dissolved in DMSO as a 10 mM stock and used to prepare compound source plates. Serial dilution (1:3, 10-point dose-response curves starting from 10 μM) and compound transfer was performed using the ECHO 550 (Labcyte, Sunnyvale, Calif.) into 384-well white low volume assay plates (Greiner Bio-One) with appropriate DMSO backfill for a final DMSO concentration of 0.1%. THP-1 cells were plated at 5000 cells/well in the 384-well plates and incubated at 37° C. for 2 h. 500 ng/mL of LPS was added after 2 hours and cells were incubated for another 22 hours at 37° C. Plates were spun in a centrifuge for 1 minute at […] and a mixture of anti-IL6 XL665, and anti-IL6 Cryptate diluted in reconstitution buffer (Cisbio Inc.) was added to each well. Following incubation for 3 hrs at room temperature, Homogeneous Time-Resolved Fluorescence (HTRF) was measured using the Envision (Perkin Elmer) at 665 nm and […]. The ratio of fluorescence at 665 nm to 620 nm was used as a readout for IL6 quantification. All samples were processed in duplicate. Readings were normalized to DMSO treated cells and normalized activities were utilized for EC50 calculations using the dose-response log (inhibitor) vs. response -variable slope (four parameters) nonlinear regression feature available in GraphPad Prism 5.0 (or Dotmatics). For EC50 of >10 μM, the percent inhibition at 10 μM is provided.

SW480 colon cancer cells = assay: Cell viability assay (CellTiter-Blue) in SW480 colon cancer cells; details: Homo sapiens, 96 h, four days incubation, CellTiter-Blue cell viability
Protocol: Representative compounds were screened using the following assay procedure to assess the effect on cell viability as described below.
Each compound was dissolved in DMSO as a 10 mM stock and used to prepare compound source plates. Serial dilution (1:3, 8-point dose-response curves from 10 μM to 0.004 μM) and compound transfer was performed using the ECHO 550 (Labcyte, Sunnyvale, Calif.) into 96-well clear bottom, black-walled plates (Corning-Costar).
Approximately 2×10^3 SW480 colon cancer cells were seeded into each well and allowed to incubate in the presence or absence of compound for four days at 37° C./5% CO2. Eight replicates of DMSO-treated cells served as controls and cells treated with compound were performed in duplicate.
After incubation, 20 μL of CellTiter-Blue (Promega) was added to each well allowed to incubate for approximately 3 hours. This reagent was a buffered solution which contains resazurin, metabolically active cells were able to reduce rezarurin (blue) into resorufin (pink) which was highly fluorescent. This measured fluorescence was used as a readout for cell viability.
After incubation, the plates were read at Ex 560 nm Em 590 nm (Cytation 3, BioTek). Dose-response curves were generated and EC50 concentration values were calculated using non-linear regression curve fit in the GraphPad Prism (San Diego, Calif.) or Dotmatics' Studies Software (Bishops Stortford, UK). For EC50 of >10 μM, the percent inhibition at 10 μM is provided.

[1] = system: Wnt activity (Sp5-Luc reporter, human Sp5 promoter with eight TCF/LEF binding sites) in SW480 colon carcinoma cells; assay: Screening assay for Wnt activity: Sp5-Luc reporter gene assay in SW480 cells; details: 10-point dose-response starting from 10 μM, overnight incubation
Source text: The screening assay for Wnt activity is described as follows. Reporter cell lines can be generated by stably transducing cancer cell lines (e.g., colon cancer) or primary cells (e.g., IEC-6 intestinal cells) with a lentiviral construct that includes a Wnt-responsive promoter driving expression of the firefly luciferase gene.
SW480 colon carcinoma cells were transduced with a lentiviral vector expressing luciferase with a human Sp5 promoter consisting of a sequence of eight TCF/LEF binding sites. SW480 cells stably expressing the Sp5-Luc reporter gene and a hygromycin resistance gene were selected by treatment with 150 μg/mL of hygromycin for 7 days. These stably transduced SW480 cells were expanded in cell culture and used for all further screening activities. Each compound was dissolved in DMSO as a 10 mM stock and used to prepare compound source plates. Serial dilution (1:3, 10-point dose-response curves starting from 10 μM) and compound transfer was performed using the ECHO 550 (Labcyte, Sunnyvale, Calif.) into 384-well white solid bottom assay plates (Greiner Bio-One) with appropriate DMSO backfill for a final DMSO concentration of 0.1%. For Sp5-Luc reporter gene assays, the cells were plated at 4,000 cells/well in 384-well plates with medium containing 1% fetal bovine serum and incubated overnight at 37° C. and 5% CO2. Following incubation, 20 μl of BrightGlo luminescence reagent (Promega) was added to each well of the 384-well assay plates. The plates were placed on an orbital shaker for 2 min and then luminescence was quantified using the Envision (Perkin Elmer) plate reader. Readings were normalized to DMSO only treated cells, and normalized activities were utilized for EC50 calculations using the dose-response log (inhibitor) vs. response -variable slope (four parameters) nonlinear regression feature available in GraphPad Prism 5.0 (or Dotmatics). For EC50 of >10 μM, the percent inhibition at 10 μM is provided.

[2] = system: LL29 cells (primary human fibroblasts derived from IPF patients) treated with TGF-β1, α-smooth muscle actin; assay: Inhibition of the fibrotic process: αSMA staining in TGF-β1 treated primary human fibroblasts from IPF patients (LL29 cells); details: Fibroblast, 96 h, LL29 cells treated with TGF-β1 (20 ng/mL), 4 days
Source text: Representative compounds were screened using primary human fibroblasts (derived from IPF patients) treated with TGF-β1 to determine their ability to inhibit the fibrotic process.
Human Fibroblast Cell Culture: Primary human fibroblasts derived from IPF patients (LL29 cells) [^1Xiaoqiu Liu, et.al., “Fibrotic Lung Fibroblasts Show Blunted Inhibition by cAMP Due to Deficient cAMP Response Element-Binding Protein Phosphorylation”, Journal of Pharmacology and Experimental Therapeutics (2005), 315(2), 678-687; ^2Watts, K. L., et.al., “RhoA signaling modulates cyclin D1 expression in human lung fibroblasts; implications for idiopathic pulmonary fibrosis”, Respiratory Research (2006), 7(1), 88] were obtained from American Type Culture Collection (ATCC) and expanded in F12 medium supplemented with 15% Fetal Bovine Serum and Penicillin/Streptomycin.
Compound Screening: Each compound was dissolved in DMSO as a 10 mM stock and used to prepare compound source plates. […] LL29 cells are plated at 1,500 cells/well in 80 μL/well F12 medium supplemented with 1% Fetal Bovine Serum. One hour after addition of the cells, TGF-β1 (Peprotech; 20 ng/mL) was added to the plates to induce fibrosis (ref. 1 and 2 above). Wells treated with TGF-β1 and containing DMSO were used as controls. Cells were incubated at 37° C. and 5% CO2 for 4 days. Following incubation for 4 days, SYTOX green nucleic acid stain (Life Technologies [Thermo Fisher Scientific]) was added to the wells at a final concentration of 1 μM and incubated at room temperature for 30 min. Cells were then fixed using 4% formaldehyde (Electron Microscopy Sciences), washed 3 times with PBS followed by blocking and permeabilization using 3% Bovine Serum Albumin (BSA; Sigma) and 0.3% Triton X-100 (Sigma) in PBS. Cells were then stained with antibody specific to α-smooth muscle actin (αSMA; Abcam) (ref. 1 and 2 above) in 3% Bovine Serum Albumin (BSA; Sigma) and 0.3% Triton X-100 (Sigma) in PBS, and incubated overnight at 4° C. Cells were then washed 3 times with PBS, followed by incubation with Alexa Flor-647 conjugated secondary antibody (Life Technologies [Thermo Fisher Scientific]) and DAPI at room temperature for 1 hour. Cells were then washed 3 times with PBS and plates were sealed for imaging. αSMA staining was imaged by excitation at 630 nm and emission at 665 nm and quantified using the Compartmental Analysis program on the CellInsight CX5 (Thermo Scientific). Dead or apoptotic cells were excluded from analysis based on positive SYTOX green staining. % of total cells positive for αSMA were counted in each well and normalized to the average of 11 wells treated with TGF-β1 on the same plate using Dotmatics' Studies Software. The normalized averages (fold change over untreated) of 3 replicate wells for each compound concentration were used to create dose-responses curves and EC50 values were calculated using non-linear regression curve fit in the Dotmatics' Studies Software. For EC50 of >10 μM, the percent inhibition at 10 μM is provided.

## Fc1ccccc1-c1cncc2[nH]c(-c3n[nH]c4ccc(-c5cncc(CNCC6CCCC6)c5)nc34)nc12 [Compound 81, 1-Cyclopentyl-N-((5-(3-(7-(2-fluorophenyl)-3H-imidazo[4,5-c]pyridin-2-yl)-1H-pyrazolo[4,3-b]pyridin-5-yl)pyridin-3-yl)methyl)methanamine]
IL-6 in THP-1 cells
  EC50: 3530 nM
SW480 colon cancer cells
  EC50: 1390 nM
[1]
  EC50: 1260 nM
[2]
  EC50: 1940 nM

## O=C(Nc1cncc(-c2ccc3[nH]nc(-c4nc5c(N6CCCCC6)cncc5[nH]4)c3n2)c1)C1CC1 [Compound 188, N-(5-(3-(7-(Piperidin-1-yl)-3H-imidazo[4,5-c]pyridin-2-yl)-1H-pyrazolo[4,3-b]pyridin-5-yl)pyridin-3-yl)cyclopropanecarboxamide]
IL-6 in THP-1 cells
  EC50: 1400 nM
SW480 colon cancer cells
  EC50: 4420 nM
[1]
  EC50: 9700 nM
[2]
  EC50: 4940 nM

## FC1(F)CCN(Cc2cncc(-c3ccc4[nH]nc(-c5nc6c(N7CCCCC7)cncc6[nH]5)c4n3)c2)C1 [Compound 194, 5-(5-((3,3-Difluoropyrrolidin-1-yl)methyl)pyridin-3-yl)-3-(7-(piperidin-1-yl)-3H-imidazo[4,5-c]pyridin-2-yl)-1H-pyrazolo[4,3-b]pyridine]
IL-6 in THP-1 cells
  EC50: 6550 nM
SW480 colon cancer cells
  EC50: 3590 nM
[1]
  EC50: 2330 nM
[2]
  EC50: 2710 nM

## c1ccc(CNCc2cncc(-c3ccc4[nH]nc(-c5nc6c(-c7ccsc7)cncc6[nH]5)c4n3)c2)cc1 [Compound 276, N-Benzyl-1-(5-(3-(7-(thiophen-3-yl)-3H-imidazo[4,5-c]pyridin-2-yl)-1H-pyrazolo[4,3-b]pyridin-5-yl)pyridin-3-yl)methanamine]
IL-6 in THP-1 cells
  EC50: > 10000 nM
  inhibition at 10 µM: 39.9%
SW480 colon cancer cells
  EC50: 1180 nM
[1]
  EC50: 3460 nM
[2]
  EC50: 7470 nM

## CN(C)CCNc1cc(F)cc(-c2cncc3[nH]c(-c4n[nH]c5ccc(-c6cncc(CNCC7CCCC7)c6)nc45)nc23)c1 [Compound 445, N^1-(3-(2-(5-(5-(((Cyclopentylmethyl)amino)methyl)pyridin-3-yl)-1H-pyrazolo[4,3-b]pyridin-3-yl)-3H-imidazo[4,5-c]pyridin-7-yl)-5-fluorophenyl)-N^2,N^2-dimethylethane-1,2-diamine]
IL-6 in THP-1 cells
  EC50: > 10000 nM
  inhibition at 10 µM: 45.8%
SW480 colon cancer cells
  EC50: 8710 nM
[1]
  EC50: 9280 nM
[2]
  EC50: 4020 nM

## CN(C)CCNc1cc(F)cc(-c2cncc3[nH]c(-c4n[nH]c5ccc(-c6ccccn6)nc45)nc23)c1 [Compound 448, N^1-(3-Fluoro-5-(2-(5-(pyridin-2-yl)-1H-pyrazolo[4,3-b]pyridin-3-yl)-3H-imidazo[4,5-c]pyridin-7-yl)phenyl)-N^2,N^2-dimethylethane-1,2-diamine]
IL-6 in THP-1 cells
  EC50: 1680 nM
SW480 colon cancer cells
  EC50: 2140 nM
[1]
  EC50: 1710 nM
[2]
  EC50: 941 nM

## Fc1cccc(-c2cncc3[nH]c(-c4n[nH]c5ccc(-c6cncc(OCCN7CCCC7)c6)nc45)nc23)c1 [Compound 486, 3-(7-(3-Fluorophenyl)-3H-imidazo[4,5-c]pyridin-2-yl)-5-(5-(2-(pyrrolidin-1-yl)ethoxy)pyridin-3-yl)-1H-pyrazolo[4,3-b]pyridine]
IL-6 in THP-1 cells
  EC50: > 10000 nM
  inhibition at 10 µM: 47.4%
SW480 colon cancer cells
  EC50: 9340 nM
[1]
  EC50: 3430 nM
[2]
  EC50: 2120 nM

## COc1cncc(-c2ccc3[nH]nc(-c4nc5c(N6CCCCC6)cncc5[nH]4)c3n2)c1 [Compound 584, 5-(5-Methoxylpyridin-3-yl)-3-(7-(piperidin-1-yl)-3H-imidazo[4,5-c]pyridin-2-yl)-1H-pyrazolo[4,3-b]pyridine]
IL-6 in THP-1 cells
  EC50: 44 nM
SW480 colon cancer cells
  EC50: 2180 nM
[1]
  EC50: 3390 nM
[2]
  EC50: 1650 nM

## CN1CCN(c2cncc3[nH]c(-c4n[nH]c5ccc(-c6cncc(OC7CCCCC7)c6)nc45)nc23)CC1 [Compound 611, 5-(5-(Cyclohexyloxy)pyridin-3-yl)-3-(7-(4-methylpiperazin-1-yl)-3H-imidazo[4,5-c]pyridin-2-yl)-1H-pyrazolo[4,3-b]pyridine]
IL-6 in THP-1 cells
  EC50: 8780 nM
SW480 colon cancer cells
  EC50: 2540 nM
[1]
  EC50: 1920 nM
[2]
  EC50: 1330 nM
